In assay [1] the target is T1, Prostaglandin G/H synthase 2 (Mus musculus, UniProt Q05769).
T1 sequence (Q05769 whole entry): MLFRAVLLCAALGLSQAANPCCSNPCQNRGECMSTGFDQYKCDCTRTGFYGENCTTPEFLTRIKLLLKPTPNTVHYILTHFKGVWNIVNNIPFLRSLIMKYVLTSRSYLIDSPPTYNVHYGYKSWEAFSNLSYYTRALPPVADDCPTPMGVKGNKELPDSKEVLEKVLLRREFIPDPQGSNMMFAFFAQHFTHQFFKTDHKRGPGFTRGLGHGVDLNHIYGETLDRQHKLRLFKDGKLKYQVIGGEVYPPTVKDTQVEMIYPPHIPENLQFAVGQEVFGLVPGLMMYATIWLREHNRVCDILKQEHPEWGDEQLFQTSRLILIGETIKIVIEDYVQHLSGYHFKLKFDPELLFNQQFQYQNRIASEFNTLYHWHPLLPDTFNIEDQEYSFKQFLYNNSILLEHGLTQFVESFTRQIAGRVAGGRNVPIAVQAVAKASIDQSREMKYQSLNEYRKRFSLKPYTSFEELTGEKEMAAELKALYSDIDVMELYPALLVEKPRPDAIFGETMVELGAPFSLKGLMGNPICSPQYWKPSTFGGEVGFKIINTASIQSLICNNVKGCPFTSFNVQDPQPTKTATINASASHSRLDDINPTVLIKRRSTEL
As to the kind of experiment: Tested for prostaglandin E2 production as a function of COX-2 inhibition using endotoxin-treated murine RAW 264.7 macrophages. Format: functional.

The target in assay [2] is T2, Prostaglandin G/H synthase 2 (Homo sapiens, UniProt P35354).
T2 sequence (P35354 whole entry): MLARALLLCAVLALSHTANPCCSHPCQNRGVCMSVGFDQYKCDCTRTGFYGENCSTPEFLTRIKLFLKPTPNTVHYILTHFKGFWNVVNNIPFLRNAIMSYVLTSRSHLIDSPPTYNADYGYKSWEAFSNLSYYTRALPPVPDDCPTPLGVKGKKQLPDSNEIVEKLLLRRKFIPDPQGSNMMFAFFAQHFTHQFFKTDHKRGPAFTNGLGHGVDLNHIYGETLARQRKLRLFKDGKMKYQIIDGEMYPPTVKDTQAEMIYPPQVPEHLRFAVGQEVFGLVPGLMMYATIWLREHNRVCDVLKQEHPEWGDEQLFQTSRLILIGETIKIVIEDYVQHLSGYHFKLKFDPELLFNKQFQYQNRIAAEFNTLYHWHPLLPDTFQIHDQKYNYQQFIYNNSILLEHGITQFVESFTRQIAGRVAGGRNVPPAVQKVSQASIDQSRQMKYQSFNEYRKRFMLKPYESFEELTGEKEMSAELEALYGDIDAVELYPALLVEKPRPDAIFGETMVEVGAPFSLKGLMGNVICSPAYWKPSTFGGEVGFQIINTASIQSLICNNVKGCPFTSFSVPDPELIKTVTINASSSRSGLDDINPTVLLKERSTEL
Description: Inhibitory activity against human recombinant cyclooxygenase 2

In ChEMBL document CHEMBL1143455 (Bioorg Med Chem Lett, 2005) one finds IC50 data, which are given here for four compounds.

By IC50 is commonly meant the point on the concentration scale where inhibition reaches its midpoint. High values mean weaker potency, low ones greater potency.

In assay [1], `NS(=O)(=O)c1ccc(-c2c(-c3ccccc3)noc2CF)cc1` had an IC50 of 2 nM.

Compound `Cc1onc(-c2ccccc2)c1-c1ccc(S(N)(=O)=O)c(F)c1` displayed an IC50 in assay [1] of 2 nM.

In the case of `Cc1onc(-c2ccc(F)cc2)c1-c1ccc(S(N)(=O)=O)cc1`, the IC50 in assay [1] came out at 2 nM.

As to `NS(=O)(=O)c1ccc(-c2c(-c3ccccc3)noc2CCF)cc1`, the IC50 is 8 nM in assay [2] and 2 nM in assay [1].
